From patent US12473304B2, “Heterocyclic PAD4 inhibitors” (BRISTOL-MYERS SQUIBB COMPANY, priority 2020, dated 2025) come the findings set out here.

For orientation: pIC50 means the IC50 on a negative log10 scale, so that one unit is a factor of ten.

pIC50: −log10 of the molar value.

human PAD4 (hPAD4), sequence (Q9UM07 whole entry): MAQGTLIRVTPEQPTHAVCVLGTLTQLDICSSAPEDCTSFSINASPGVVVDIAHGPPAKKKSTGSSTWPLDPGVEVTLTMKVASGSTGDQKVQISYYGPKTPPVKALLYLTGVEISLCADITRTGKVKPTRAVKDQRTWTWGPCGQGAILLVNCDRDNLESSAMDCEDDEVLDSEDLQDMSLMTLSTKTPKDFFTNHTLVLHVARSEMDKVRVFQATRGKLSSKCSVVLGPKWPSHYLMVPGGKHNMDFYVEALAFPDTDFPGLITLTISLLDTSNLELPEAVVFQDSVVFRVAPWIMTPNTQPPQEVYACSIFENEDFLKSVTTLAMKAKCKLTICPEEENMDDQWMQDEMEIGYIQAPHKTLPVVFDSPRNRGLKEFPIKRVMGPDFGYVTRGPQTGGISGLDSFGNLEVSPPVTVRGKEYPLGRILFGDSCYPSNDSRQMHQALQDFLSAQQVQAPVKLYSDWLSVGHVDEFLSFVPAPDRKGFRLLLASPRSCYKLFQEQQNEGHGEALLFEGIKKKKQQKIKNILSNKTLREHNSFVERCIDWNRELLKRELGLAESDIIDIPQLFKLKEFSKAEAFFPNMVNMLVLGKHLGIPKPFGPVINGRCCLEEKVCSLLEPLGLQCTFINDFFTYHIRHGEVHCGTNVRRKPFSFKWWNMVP

The target in the assay is human PAD4 (hPAD4) (Homo sapiens (Human), UniProt Q9UM07). Put plainly: RFMS Human PAD4 Functional Assay 1. As to conditions: RFMS assay 1; 5 nM hPAD4, 250 μM BAEE substrate, 50 μM calcium, 37° C. The assay is classed as biochemical. A digest of the protocol:
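Citrullination product read by RapidFire triple-quad MRM against a modified-citrulline internal standard, after TCA stop and 30 min phenyl glyoxal step at 37 °C. Reaction: 250 μM BAEE, 5 nM human PAD4, 90 min at 37 °C, pH 7.5 HEPES buffer with 50 μM calcium and 5 μM TPEN, following 30 min compound–enzyme preincubation (max 50 μM).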
Turning to `Cc1c(-c2cc3ccc(C4CC4)nc3n2CC2CC2)nn2cc(C(=O)N3C[C@H](N)C[C@@H](F)C3)cc(F)c12` [Example 57, ((3R,5R)-3-Amino-5-fluoropiperidin-1-yl)(2-(6-cyclopropyl-1-(cyclopropylmethyl)-1H-pyrrolo[2,3-b]pyridin-2-yl)-4-fluoro-3-methylpyrazolo[1,5-a]pyridin-6-yl)methanone], the pIC50 was 6.11. With `Cc1c(-c2cc3ccc(-c4ccc(Cl)c5c(NS(C)(=O)=O)nn(C)c45)cc3n2CC2CC2)nn2cc(C(=O)N3CC4CCC3[C@@H]4N)cc(F)c12` (stereo partly drawn) [Example 58, N-(7-(2-(6-((7R)-7-Amino-2-azabicyclo[2.2.1]heptane-2-carbonyl)-4-fluoro-3-methylpyrazolo[1,5-a]pyridin-2-yl)-1-(cyclopropylmethyl)-1H-indol-6-yl)-4-chloro-1-methyl-1H-indazol-3-yl)methanesulfonamide], the pIC50 was 7.08. Turning to `Cc1c(-c2cc3ccc(-c4cccc(O)c4F)cc3n2CC2CC2)nn2cc(C(=O)N3CC4CCC3[C@@H]4N)cc(F)c12` (stereo partly drawn) [Example 59, ((7R)-7-Amino-2-azabicyclo[2.2.1]heptan-2-yl)(2-(1-(cyclopropylmethyl)-6-(2-fluoro-3-hydroxyphenyl)-1H-indol-2-yl)-4-fluoro-3-methylpyrazolo[1,5-a]pyridin-6-yl)methanone], the negative-log IC50 (pIC50) is 6.54. The figure for `Cc1c(-c2cc3ccc(-c4ccc(O)c(F)c4)cc3n2CC2CC2)nn2cc(C(=O)N3CC4CCC3[C@@H]4N)cc(F)c12` (stereo partly drawn) [Example 60, ((7R)-7-Amino-2-azabicyclo[2.2.1]heptan-2-yl)(2-(1-(cyclopropylmethyl)-6-(3-fluoro-4-hydroxyphenyl)-1H-indol-2-yl)-4-fluoro-3-methylpyrazolo[1,5-a]pyridin-6-yl)methanone] is 7.08. Under `Cc1c(-c2cc3ccc(-c4ccn5c(C)nnc5c4)cc3n2CC2CC2)nn2cc(C(=O)N3CC4CCC3[C@@H]4N)cc(F)c12` (stereo partly drawn) [Example 62, ((7R)-7-Amino-2-azabicyclo[2.2.1]heptan-2-yl)(2-(1-(cyclopropylmethyl)-6-(3-methyl-[1,2,4]triazolo[4,3-a]pyridin-7-yl)-1H-indol-2-yl)-4-fluoro-3-methylpyrazolo[1,5-a]pyridin-6-yl)methanone] stands 7.55; under `Cc1c(-c2cc3cccnc3n2CC2CC2)nn2cc(C(=O)N3CC4CCC3[C@@H]4N)ccc12` (stereo partly drawn) [Example 63, ((7R)-7-Amino-2-azabicyclo[2.2.1]heptan-2-yl)(2-(1-(cyclopropylmethyl)-1H-pyrrolo[2,3-b]pyridin-2-yl)-3-methylpyrazolo[1,5-a]pyridin-6-yl)methanone], 6.64. The figure for `Cc1c(-c2cc3ccc(-c4ccc5c(c4)C(=O)NC5)nc3n2CC2CC2)nn2cc(C(=O)N3CC4CCC3[C@@H]4N)ccc12` (stereo partly drawn) [Example 65, 6-(2-(6-((7R)-7-Amino-2-azabicyclo[2.2.1]heptane-2-carbonyl)-3-methylpyrazolo[1,5-a]pyridin-2-yl)-1-(cyclopropylmethyl)-1H-pyrrolo[2,3-b]pyridin-6-yl)isoindolin-1-one] is 7.60. `Cc1ccc2cc(-c3nn4cc(C(=O)N5CC6CCC5[C@@H]6N)ccc4c3C)n(CC3CC3)c2n1` (stereo partly drawn) [Example 66, ((7R)-7-Amino-2-azabicyclo[2.2.1]heptan-2-yl)(2-(1-(cyclopropylmethyl)-6-methyl-1H-pyrrolo[2,3-b]pyridin-2-yl)-3-methylpyrazolo[1,5-a]pyridin-6-yl)methanone]: the pIC50 was 7.23. The figure for `Cc1c(-c2cc3ccc(-c4ccc(O)c(F)c4)nc3n2CC2CC2)nn2cc(C(=O)N3CC4CCC3[C@@H]4N)ccc12` (stereo partly drawn) [Example 67, ((7R)-7-Amino-2-azabicyclo[2.2.1]heptan-2-yl)(2-(1-(cyclopropylmethyl)-6-(3-fluoro-4-hydroxyphenyl)-1H-pyrrolo[2,3-b]pyridin-2-yl)-3-methylpyrazolo[1,5-a]pyridin-6-yl)methanone] is 7.64; for `Cc1c(-c2cc3ccc(-c4cccc(O)c4F)nc3n2CC2CC2)nn2cc(C(=O)N3CC4CCC3[C@@H]4N)ccc12` (stereo partly drawn) [Example 68, ((7R)-7-Amino-2-azabicyclo[2.2.1]heptan-2-yl)(2-(1-(cyclopropylmethyl)-6-(2-fluoro-3-hydroxyphenyl)-1H-pyrrolo[2,3-b]pyridin-2-yl)-3-methylpyrazolo[1,5-a]pyridin-6-yl)methanone] it is 7.59. Under `Cc1c(-c2cc3ccc(-c4ccc(C(N)=O)c(F)c4)nc3n2CC2CC2)nn2cc(C(=O)N3CC4CCC3[C@@H]4N)ccc12` (stereo partly drawn) [Example 69, 4-(2-(6-((7R)-7-Amino-2-azabicyclo[2.2.1]heptane-2-carbonyl)-3-methylpyrazolo[1,5-a]pyridin-2-yl)-1-(cyclopropylmethyl)-1H-pyrrolo[2,3-b]pyridin-6-yl)-2-fluorobenzamide] stands 7.72; under `Cc1c(-c2cc3ccc(-c4ccn5c(C)nnc5c4)nc3n2CC2CC2)nn2cc(C(=O)N3CC4CCC3[C@@H]4N)ccc12` (stereo partly drawn) [Example 70, ((7R)-7-Amino-2-azabicyclo[2.2.1]heptan-2-yl)(2-(1-(cyclopropylmethyl)-6-(3-methyl-[1,2,4]triazolo[4,3-a]pyridin-7-yl)-1H-pyrrolo[2,3-b]pyridin-2-yl)-3-methylpyrazolo[1,5-a]pyridin-6-yl)methanone], 7.82; under `Cc1c(-c2cc3ccc(C4CC4)nc3n2CC2CC2)nn2cc(C(=O)N3CC4CCC3[C@@H]4N)ccc12` (stereo partly drawn) [Example 71, ((7R)-7-Amino-2-azabicyclo[2.2.1]heptan-2-yl)(2-(6-cyclopropyl-1-(cyclopropylmethyl)-1H-pyrrolo[2,3-b]pyridin-2-yl)-3-methylpyrazolo[1,5-a]pyridin-6-yl)methanone], 7.66. Under `COc1cc(-c2ccc3cc(-c4nn5cc(C(=O)N6CC7CCC6[C@@H]7N)ccc5c4C)n(CC4CC4)c3n2)c(F)cn1` (stereo partly drawn) [Example 72, ((7R)-7-Amino-2-azabicyclo[2.2.1]heptan-2-yl)(2-(1-(cyclopropylmethyl)-6-(5-fluoro-2-methoxypyridin-4-yl)-1H-pyrrolo[2,3-b]pyridin-2-yl)-3-methylpyrazolo[1,5-a]pyridin-6-yl)methanone] stands 7.17; under `Cc1c(-c2cc3ccc(-c4ccc(OC(F)F)c(F)c4)nc3n2CC2CC2)nn2cc(C(=O)N3CC4CCC3[C@@H]4N)ccc12` (stereo partly drawn) [Example 73, ((7R)-7-Amino-2-azabicyclo[2.2.1]heptan-2-yl)(2-(1-(cyclopropylmethyl)-6-(4-(difluoromethoxy)-3-fluorophenyl)-1H-pyrrolo[2,3-b]pyridin-2-yl)-3-methylpyrazolo[1,5-a]pyridin-6-yl)methanone], 6.22. As to `Cc1c(-c2cc3ccc(-c4cc(F)c(O)c(F)c4)nc3n2CC2CC2)nn2cc(C(=O)N3CC4CCC3[C@@H]4N)ccc12` (stereo partly drawn) [Example 74, ((7R)-7-Amino-2-azabicyclo[2.2.1]heptan-2-yl)(2-(1-(cyclopropylmethyl)-6-(3,5-difluoro-4-hydroxyphenyl)-1H-pyrrolo[2,3-b]pyridin-2-yl)-3-methylpyrazolo[1,5-a]pyridin-6-yl)methanone], the negative logarithm of the IC50 (pIC50) is 6.37. Under `Cc1c(-c2cc3ccc(-c4ccc(F)c(O)c4)nc3n2CC2CC2)nn2cc(C(=O)N3CC4CCC3[C@@H]4N)ccc12` (stereo partly drawn) [Example 75, ((7R)-7-Amino-2-azabicyclo[2.2.1]heptan-2-yl)(2-(1-(cyclopropylmethyl)-6-(4-fluoro-3-hydroxyphenyl)-1H-pyrrolo[2,3-b]pyridin-2-yl)-3-methylpyrazolo[1,5-a]pyridin-6-yl)methanone] stands 6.78. For `COC1CCN(c2ccc3cc(-c4nn5cc(C(=O)N6CC7CCC6[C@@H]7N)ccc5c4C)n(CC4CC4)c3n2)CC1` (stereo partly drawn) [Example 76, ((7R)-7-Amino-2-azabicyclo[2.2.1]heptan-2-yl)(2-(1-(cyclopropylmethyl)-6-(4-methoxypiperidin-1-yl)-1H-pyrrolo[2,3-b]pyridin-2-yl)-3-methylpyrazolo[1,5-a]pyridin-6-yl)methanone], the pIC50 was 7.02. Turning to `Cc1c(-c2cc3ccc(N4CCC(O)CC4)nc3n2CC2CC2)nn2cc(C(=O)N3CC4CCC3[C@@H]4N)ccc12` (stereo partly drawn) [Example 77, ((7R)-7-Amino-2-azabicyclo[2.2.1]heptan-2-yl)(2-(1-(cyclopropylmethyl)-6-(4-hydroxypiperidin-1-yl)-1H-pyrrolo[2,3-b]pyridin-2-yl)-3-methylpyrazolo[1,5-a]pyridin-6-yl)methanone], the pIC50 is 7.11. As for `Cc1c(-c2cc3ccc(N4CCC[C@@H](O)C4)nc3n2CC2CC2)nn2cc(C(=O)N3CC4CCC3[C@@H]4N)ccc12` (stereo partly drawn) [Example 78, ((7R)-7-Amino-2-azabicyclo[2.2.1]heptan-2-yl)(2-(1-(cyclopropylmethyl)-6-((R)-3-hydroxypiperidin-1-yl)-1H-pyrrolo[2,3-b]pyridin-2-yl)-3-methylpyrazolo[1,5-a]pyridin-6-yl)methanone], the pIC50 was 6.84. The figure for `COC1CN(c2ccc3cc(-c4nn5cc(C(=O)N6CC7CCC6[C@@H]7N)ccc5c4C)n(CC4CC4)c3n2)C1` (stereo partly drawn) [Example 79, ((7R)-7-Amino-2-azabicyclo[2.2.1]heptan-2-yl)(2-(1-(cyclopropylmethyl)-6-(3-methoxyazetidin-1-yl)-1H-pyrrolo[2,3-b]pyridin-2-yl)-3-methylpyrazolo[1,5-a]pyridin-6-yl)methanone] is 6.67; for `Cc1c(-c2cc3cccnc3n2CC2CC2)nn2cc(C(=O)N3C[C@H](N)C[C@@H](F)C3)ccc12` [Example 80, ((3R,5R)-3-Amino-5-fluoropiperidin-1-yl)(2-(1-(cyclopropylmethyl)-1H-pyrrolo[2,3-b]pyridin-2-yl)-3-methylpyrazolo[1,5-a]pyridin-6-yl)methanone] it is 5.79.
